Laboratory results taken from US12129237B2, “Substituted diaminocarboxamide and diaminocarbonitrile pyrimidines, compositions thereof, and methods of treatment therewith” (SIGNAL PHARMACEUTICALS, LLC, priority 2011, dated 2024).

molecular target: T1, JNK1 (Homo sapiens, UniProt P45983); test: JNK1 biochemical assays (one or more of: time resolved fluorescence, Z'-LYTE Cascade, radioactive); details: tested in one or more of the JNK1 biochemical assays; read-out: Act. Level (JNK1 biochemical assay IC50 activity level)
T1 construct: purchased Carna Biosciences
T1 sequence (P45983 whole entry): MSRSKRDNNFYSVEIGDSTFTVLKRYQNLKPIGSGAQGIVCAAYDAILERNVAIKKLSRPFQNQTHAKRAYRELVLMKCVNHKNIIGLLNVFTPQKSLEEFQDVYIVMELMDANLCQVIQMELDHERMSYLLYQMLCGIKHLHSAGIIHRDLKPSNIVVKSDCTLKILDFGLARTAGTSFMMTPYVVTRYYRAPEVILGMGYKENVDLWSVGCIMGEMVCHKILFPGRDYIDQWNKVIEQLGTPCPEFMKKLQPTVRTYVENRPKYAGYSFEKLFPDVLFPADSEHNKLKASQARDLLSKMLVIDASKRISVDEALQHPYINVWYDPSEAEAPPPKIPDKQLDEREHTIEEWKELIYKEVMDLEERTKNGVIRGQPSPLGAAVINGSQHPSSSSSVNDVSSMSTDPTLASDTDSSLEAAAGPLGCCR
Description: JNK1 Assay. A 384-well time resolved fluorescence assay was used to monitor JNK1 activity. The JNK1 assay was run in the following assay buffer: 50 mM HEPES, 10 mM MgCl2, 1 mM EGTA, 2 mM DTT, and 0.01% Tween 20. To initiate the reaction 100 nM of ULight™-labeled 4EBP1 peptide (Perkin-Elmer) and 5 μM of ATP were mixed with 500 pM of JNK1 (Carna Biosciences), for a total assay volume of 20 μL in each well. The assay was incubated at room temperature for 1 h and terminated using a mixture of 30 mM EDTA and 4 nM Eu-anti-4EBP1, by adding 20 μL of stop solution to each well. Plates were read on a Perkin-Elmer Envision Reader.
JNK1 Assay. The JNK1 Z′-LYTE® Cascade kinase assay was run in the following buffer: 50 mM HEPES at pH 7.5, 0.01% BRIJ-35, 10 mM MgCl2, 1 mM EGTA, and 1 mM DTT. […] The assay was incubated at room temperature for 1 h. […] The data was then read on a fluorescence plate reader and analyzed.
JNK1 assay. The radioactive JNK kinase assay was carried out in a 96-well plate format at a final volume of 100 μL. […] JNK1 was diluted in the following dilution buffer (20 mM HEPES pH 7.6, 0.1 mM EDTA, 2.5 mM MgCl2, 0.004% (w/v) Triton X100, 2 μg/ml Leupeptin, 20 mM B-glycerol phosphate, 0.1 mM Na3VO4 dithiothreitol) and then pre-mixed with cJun diluted in the substrate solution buffer (20 mM HEPES pH 7.6, 50 mM NaCl, 0.1 mM EDTA, 2.5 mM MgCl2, 0.05% (w/v) Triton X100). […] The enzyme, substrate and inhibitor mixture was allowed to equilibrate at room temperature for 15 minutes. The reaction was started by the addition of 10 μL of 10×ATP in kinase buffer (130 mM MgCl2, 6 mM dithiothreitol, 150 mM para-nitrophenyl phosphate, 100 μCi/ml γ-[^33P]-ATP). Reactions were allowed to proceed for 60 minutes before precipitation of protein via trichloroacetic acid (7.2% TCA final). […] The precipitate was washed with Phosphate Buffered Saline and the amount of phosphate incorporated into cJun was quantified by scintillation counting using a Packard Topcount-NXT. All assays were conducted under conditions where phosphate incorporation was linear with respect to time and enzyme concentration.

Row | Structure (SMILES) | IC50 [nM]
1 | NC(=O)c1cnc(NC2CCCCC2)nc1NC1CCCC1 [Example A-149, 2-(cyclohexylamino)-4-(cyclopentylamino)pyrimidine-5-carboxamide] | < 200
2 | CC1(Nc2ncc(C(N)=O)c(N[C@@H]3CCC[C@H](O)C3)n2)CCOCC1 [Example A-151, 4-((1R,3S)-3-hydroxycyclohexylamino)-2-(4-methyltetrahydro-2H-pyran-4-ylamino)pyrimidine-5-carboxamide] | < 200
3 | NC(=O)c1cnc(N[C@H]2CC[C@H](N3CCCC3)CC2)nc1N[C@@H]1CCC[C@H](O)C1 [Example A-153, 4-((1R,3S)-3-hydroxycyclohexylamino)-2-((1r,4R)-4-(pyrrolidin-1-yl)cyclohexylamino)pyrimidine-5-carboxamide] | < 200
4 | NC(=O)c1cnc(N[C@H]2CC[C@H](OCC(F)(F)F)CC2)nc1N[C@@H]1CCC[C@H]1O [Example A-156, 4-((1R,2R)-2-hydroxycyclopentylamino)-2-((1r,4R)-4-(2,2,2-trifluoroethoxy)cyclohexylamino)pyrimidine-5-carboxamid] | < 200
5 | CCO[C@H]1CC[C@H](Nc2ncc(C(N)=O)c(N[C@@H]3CCC[C@](C)(O)C3)n2)CC1 [Example A-157, 2-((1r,4R)-4-ethoxycyclohexylamino)-4-((1R,3S)-3-hydroxy-3-methylcyclohexylamino)pyrimidine-5-carboxamide] | < 200
6 | CCO[C@H]1CC[C@H](Nc2ncc(C(N)=O)c(N[C@@H]3CCCC[C@H](O)C3)n2)CC1 [Example A-158, 2-((1r,4R)-4-ethoxycyclohexylamino)-4-((1R,3S)-3-hydroxycycloheptylamino)pyrimidine-5-carboxamide] | < 200
7 | NC(=O)c1cnc(NC23CCC(CC2)CC3)nc1N[C@@H]1CCC[C@H](O)C1 [Example A-159, 2-(bicyclo[2.2.2]octan-1-ylamino)-4-((1R,3S)-3-hydroxycyclohexylamino)pyrimidine-5-carboxamide] | < 200
8 | NC(=O)c1cnc(N[C@H]2CC[C@H](OCC(F)(F)F)CC2)nc1N[C@@H]1CCCC[C@H](O)C1 [Example A-160, 4-((1R,3S)-3-hydroxycycloheptylamino)-2-((1r,4R)-4-(2,2,2-trifluoroethoxy)cyclohexylamino)pyrimidine-5-carboxamid] | < 200
9 | CC[C@]1(O)CCC[C@@H](Nc2nc(N[C@H]3CC[C@H](OC)CC3)ncc2C(N)=O)C1 [Example A-161, 4-((1R,3S)-3-ethyl-3-hydroxycyclohexylamino)-2-((1r,4R)-4-methoxycyclohexylamino)pyrimidine-5-carboxamide] | < 200
10 | CO[C@@H]1CCC[C@H](Nc2ncc(C(N)=O)c(N[C@@H]3CCC[C@H](O)C3)n2)CC1 [Example A-162, 4-((1R,3S)-3-hydroxycyclohexylamino)-2-((1S,4R)-4-methoxycycloheptylamino)pyrimidine-5-carboxamide] | < 200
11 | CO[C@H]1CCC[C@@H](Nc2ncc(C(N)=O)c(N[C@@H]3CCC[C@H](O)C3)n2)CC1 [Example A-163, 4-((1R,3S)-3-hydroxycyclohexylamino)-2-((1R,4S)-4-methoxycycloheptylamino)pyrimidine-5-carboxamide] | < 200
12 | CO[C@H]1CC[C@H](Nc2ncc(C(N)=O)c(NC3CCC3)n2)CC1 [Example A-164, 4-(cyclobutylamino)-2-((1r,4r)-4-methoxycyclohexylamino)pyrimidine-5-carboxamide] | < 200
13 | NC(=O)c1cnc(N[C@H]2CC[C@H](OC(F)F)CC2)nc1N[C@@H]1CCCC[C@H](O)C1 [Example A-165, 2-((1r,4R)-4-(difluoromethoxy)cyclohexylamino)-4-((1R,3S)-3-hydroxycycloheptylamino)pyrimidine-5-carboxamide] | < 200
14 | NC(=O)c1cnc(NC2CCOCC2)nc1N[C@@H]1CCCC[C@H](O)C1 [Example A-166, 4-((1R,3S)-3-hydroxycycloheptylamino)-2-(tetrahydro-2H-pyran-4-ylamino)pyrimidine-5-carboxamide] | < 200
15 | CCO[C@H]1CC[C@H](Nc2ncc(C(N)=O)c(N[C@@H]3CCOC3)n2)CC1 [Example A-167, 2-((1r,4R)-4-ethoxycyclohexylamino)-4-((R)-tetrahydrofuran-3-ylamino)pyrimidine-5-carboxamide] | < 200
16 | C[C@]1(O)CCC[C@@H](Nc2nc(N[C@H]3CC[C@H](OCC(F)(F)F)CC3)ncc2C(N)=O)C1 [Example A-168, 4-((1R,3S)-3-hydroxy-3-methylcyclohexylamino)-2-((1r,4R)-4-(2,2,2-trifluoroethoxy)cyclohexylamino)pyrimidine-5-carboxamid] | < 200
17 | C[C@]1(O)CCC[C@@H](Nc2nc(NC3CCOCC3)ncc2C(N)=O)C1 [Example A-169, 4-((1R,3S)-3-hydroxy-3-methylcyclohexylamino)-2-(tetrahydro-2H-pyran-4-ylamino)pyrimidine-5-carboxamide] | < 200
18 | C[C@]1(O)CCC[C@@H](Nc2nc(N[C@H]3CC[C@H](OC(F)F)CC3)ncc2C(N)=O)C1 [Example A-170, 2-((1r,4R)-4-(difluoromethoxy)cyclohexylamino)-4-((1R,3S)-3-hydroxy-3-methylcyclohexylamino)pyrimidine-5-carboxamide] | < 200

Row | Structure (SMILES) | IC50 [nM]
19 | NC(=O)c1cnc(N[C@H]2CC[C@H](O)CC2)nc1N[C@@H]1CCCC[C@H](O)C1 [Example A-171, 4-((1R,3S)-3-hydroxycycloheptylamino)-2-((1r,4R)-4-hydroxycyclohexylamino)pyrimidine-5-carboxamide] | < 200
20 | CCO[C@H]1CC[C@H](Nc2ncc(C(N)=O)c(N[C@@H]3CC[C@@H](C)[C@H](O)C3)n2)CC1 [Example A-172, 2-((1r,4R)-4-ethoxycyclohexylamino)-4-((1R,3R,4R)-3-hydroxy-4-methylcyclohexylamino)pyrimidine-5-carboxamide] | < 200
21 | C[C@@H]1CC[C@@H](Nc2nc(N[C@H]3CC[C@H](OC(F)F)CC3)ncc2C(N)=O)C[C@H]1O [Example A-173, 2-((1r,4R)-4-(difluoromethoxy)cyclohexylamino)-4-((1R,3R,4R)-3-hydroxy-4-methylcyclohexylamino)pyrimidine-5-carboxamide] | < 200
22 | NC(=O)c1cnc(N[C@H]2CC[C@H](OCC(F)(F)F)CC2)nc1NC1CCC1 [Example A-174, 4-(cyclobutylamino)-2-((1r,4r)-4-(2,2,2-trifluoroethoxy)cyclohexylamino)pyrimidine-5-carboxamide] | < 200
23 | NC(=O)c1cnc(N[C@H]2CC[C@H](O)CC2)nc1NC1CC1 [Example A-175, 4-(cyclopropylamino)-2-((1r,4r)-4-hydroxycyclohexylamino)pyrimidine-5-carboxamide] | < 200
24 | NC(=O)c1cnc(N[C@H]2CC[C@H](O)CC2)nc1NC1CCC1 [Example A-176, 4-(cyclobutylamino)-2-((1r,4r)-4-hydroxycyclohexylamino)pyrimidine-5-carboxamide] | < 200
25 | C[C@]1(O)CCC[C@@H](Nc2nc(N[C@H]3CC[C@H](O)CC3)ncc2C(N)=O)C1 [Example A-177, 4-((1R,3S)-3-hydroxy-3-methylcyclohexylamino)-2-((1r,4R)-4-hydroxycyclohexylamino)pyrimidine-5-carboxamide] | < 200
26 | C[C@@H]1CC[C@@H](Nc2nc(N[C@H]3CC[C@H](OCC(F)(F)F)CC3)ncc2C(N)=O)C[C@H]1O [Example A-178, 4-((1R,3R,4R)-3-hydroxy-4-methylcyclohexylamino)-2-((1r,4R)-4-(2,2,2-trifluoroethoxy)cyclohexylamino)pyrimidine-5-carboxamide] | < 200
27 | C[C@@H]1CC[C@@H](Nc2nc(N[C@H]3CC[C@H](O)CC3)ncc2C(N)=O)C[C@H]1O [Example A-179, 4-((1R,3R,4R)-3-hydroxy-4-methylcyclohexylamino)-2-((1r,4R)-4-hydroxycyclohexylamino)pyrimidine-5-carboxamide] | < 200
28 | CC1(Nc2ncc(C(N)=O)c(N[C@@H]3CCCC[C@H](O)C3)n2)CCOCC1 [Example A-181, 4-((1R,3S)-3-hydroxycycloheptylamino)-2-(4-methyltetrahydro-2H-pyran-4-ylamino)pyrimidine-5-carboxamide] | < 200
29 | CC(C)(C)Nc1ncc(C(N)=O)c(N[C@@H]2CCCC[C@H](O)C2)n1 [Example A-182, 2-(tert-butylamino)-4-((1R,3S)-3-hydroxycycloheptylamino)pyrimidine-5-carboxamide] | < 200
30 | CO[C@H]1CC[C@H](Nc2ncc(C(N)=O)c(N[C@@H]3CCCC[C@](C)(O)C3)n2)CC1 [Example A-183, 4-((1R,3S)-3-hydroxy-3-methylcycloheptylamino)-2-((1r,4R)-4-methoxycyclohexylamino)pyrimidine-5-carboxamide] | < 200
31 | CO[C@H]1CC[C@H](Nc2ncc(C(N)=O)c(N[C@H]3CCCC[C@](C)(O)C3)n2)CC1 [Example A-184, 4-((1S,3S)-3-hydroxy-3-methylcycloheptylamino)-2-((1r,4S)-4-methoxycyclohexylamino)pyrimidine-5-carboxamide] | 200 to 800
32 | CO[C@H]1CC[C@H](Nc2ncc(C(N)=O)c(N[C@H]3CCCC[C@@](C)(O)C3)n2)CC1 [Example A-185, 4-((1S,3R)-3-hydroxy-3-methylcycloheptylamino)-2-((1r,4S)-4-methoxycyclohexylamino)pyrimidine-5-carboxamide] | < 200
33 | CO[C@H]1CC[C@H](Nc2ncc(C(N)=O)c(N[C@@H]3CCCC[C@@](C)(O)C3)n2)CC1 [Example A-186, 4-((1R,3R)-3-hydroxy-3-methylcycloheptylamino)-2-((1r,4R)-4-methoxycyclohexylamino)pyrimidine-5-carboxamide] | < 200
34 | C[C@]1(O)CCC[C@@H](Nc2nc(NC3CCC(F)(F)CC3)ncc2C(N)=O)C1 [Example A-187, 2-(4,4-difluorocyclohexylamino)-4-((1R,3S)-3-hydroxy-3-methylcyclohexylamino)pyrimidine-5-carboxamide] | < 200
35 | NC(=O)c1cnc(N[C@H]2CC[C@H](OCC(F)(F)F)CC2)nc1N[C@@H]1CCCOC1 [Example A-188, 4-((R)-tetrahydro-2H-pyran-3-ylamino)-2-((1r,4R)-4-(2,2,2-trifluoroethoxy)cyclohexylamino)pyrimidine-5-carboxamide] | < 200
